# Experimental data from US20090137664A1, “SAURURUS CERNUUS COMPOUNDS THAT INHIBIT CELLULAR RESPONSES TO HYPOXIA” (priority 2003, published 2009).
# Assays:
# Format in all cases: cell-based
# RPMI-8226 = assay: NCI in vitro cell line screen (SRB), Leukemia RPMI-8226
# Method: (§1) For exemplary purposes, an embodiment of the present invention was tested for activity with respect to certain cancer cell lines. The following Tables show results from in vitro 60-cell line antitumor testing from the US National Cancer Institute Developmental Therapeutics Program (NCI-DTP) on compound 2. The testing was in connection with the NCI's In Vitro Cell Line Screening Project (IVCLSP). Detailed information regarding the experiments and their interpretation is available from the NCI.
# A549/ATCC = assay: NCI in vitro cell line screen (SRB), Non-Small Cell Lung Cancer A549/ATCC
# Method: as §1
# EKVX = assay: NCI in vitro cell line screen (SRB), Non-Small Cell Lung Cancer EKVX
# Method: as §1
# UACC-257 = assay: NCI in vitro cell line screen (SRB), Melanoma UACC-257
# Method: as §1
# IGROV1 = assay: NCI in vitro cell line screen (SRB), Ovarian Cancer IGROV1
# Method: as §1
# UO-31 = assay: NCI in vitro cell line screen (SRB), Renal Cancer UO-31
# Method: as §1
# [1] = Homo sapiens, read-out: LC50 (the source's name)
compound,measurement,setting,value
"COc1ccc([C@@H](O)[C@@H](C)Oc2ccc([C@H]3O[C@H](c4ccc(O[C@H](C)[C@H](O)c5ccc6c(c5)OCO6)c(OC)c4)[C@H](C)[C@H]3C)cc2OC)cc1OC [Compound 2, manassantin B]",TGI,RPMI-8226,1.45E−5 Molar
same,GI50,RPMI-8226; Homo sapiens,0.337 µM
same,Mean Optical Densities,RPMI-8226; Log10 Concentration −4.0 Molar,0.213
same,Percent Growth,RPMI-8226; Log10 Concentration −4.0 Molar,−33%
same,Mean Optical Densities,RPMI-8226; Log10 Concentration −5.0 Molar,0.356
same,Percent Growth,RPMI-8226; Log10 Concentration −5.0 Molar,6%
same,Mean Optical Densities,RPMI-8226; Log10 Concentration −6.0 Molar,0.532
same,Percent Growth,RPMI-8226; Log10 Concentration −6.0 Molar,34%
same,Mean Optical Densities,RPMI-8226; Log10 Concentration −7.0 Molar,0.737
same,Percent Growth,RPMI-8226; Log10 Concentration −7.0 Molar,67%
same,Mean Optical Densities,RPMI-8226; Log10 Concentration −8.0 Molar,0.766
same,Percent Growth,RPMI-8226; Log10 Concentration −8.0 Molar,72%
same,TGI,A549/ATCC,>1.00E−4 Molar
same,GI50,A549/ATCC; Homo sapiens,6.76 µM
same,LC50 (concentration giving 50% net cell kill),A549/ATCC; Homo sapiens,> 100 µM
same,Mean Optical Densities,A549/ATCC; Log10 Concentration −4.0 Molar,0.691
same,Percent Growth,A549/ATCC; Log10 Concentration −4.0 Molar,30%
same,Mean Optical Densities,A549/ATCC; Log10 Concentration −5.0 Molar,0.849
same,Percent Growth,A549/ATCC; Log10 Concentration −5.0 Molar,45%
same,Mean Optical Densities,A549/ATCC; Log10 Concentration −6.0 Molar,1.200
same,Percent Growth,A549/ATCC; Log10 Concentration −6.0 Molar,77%
same,Mean Optical Densities,A549/ATCC; Log10 Concentration −7.0 Molar,1.242
same,Percent Growth,A549/ATCC; Log10 Concentration −7.0 Molar,80%
same,Mean Optical Densities,A549/ATCC; Log10 Concentration −8.0 Molar,1.288
same,Percent Growth,A549/ATCC; Log10 Concentration −8.0 Molar,85%
same,TGI,EKVX,8.25E−5 Molar
same,GI50,EKVX; Homo sapiens,2.51 µM
same,CC50,EKVX; [1],> 100 µM
same,Mean Optical Densities,EKVX; Log10 Concentration −4.0 Molar,0.970
same,Percent Growth,EKVX; Log10 Concentration −4.0 Molar,−2%
same,Mean Optical Densities,EKVX; Log10 Concentration −5.0 Molar,1.180
same,Percent Growth,EKVX; Log10 Concentration −5.0 Molar,25%
same,Mean Optical Densities,EKVX; Log10 Concentration −6.0 Molar,1.479
same,Percent Growth,EKVX; Log10 Concentration −6.0 Molar,66%
same,Mean Optical Densities,EKVX; Log10 Concentration −7.0 Molar,1.478
same,Percent Growth,EKVX; Log10 Concentration −7.0 Molar,66%
same,Mean Optical Densities,EKVX; Log10 Concentration −8.0 Molar,1.447
same,Percent Growth,EKVX; Log10 Concentration −8.0 Molar,62%
same,TGI,UACC-257,>1.00E−4 Molar
same,GI50,UACC-257; Homo sapiens,1.09 µM
same,CC50,UACC-257; [1],> 100 µM
same,Mean Optical Densities,UACC-257; Log10 Concentration −4.0 Molar,1.165
same,Percent Growth,UACC-257; Log10 Concentration −4.0 Molar,12%
same,Mean Optical Densities,UACC-257; Log10 Concentration −5.0 Molar,1.270
same,Percent Growth,UACC-257; Log10 Concentration −5.0 Molar,23%
same,Mean Optical Densities,UACC-257; Log10 Concentration −6.0 Molar,1.558
same,Percent Growth,UACC-257; Log10 Concentration −6.0 Molar,51%
same,Mean Optical Densities,UACC-257; Log10 Concentration −7.0 Molar,1.565
same,Percent Growth,UACC-257; Log10 Concentration −7.0 Molar,52%
same,Mean Optical Densities,UACC-257; Log10 Concentration −8.0 Molar,1.673
same,Percent Growth,UACC-257; Log10 Concentration −8.0 Molar,62%
same,TGI,IGROV1,>1.00E−4 Molar
same,GI50,"IGROV1; Homo sapiens, IGROV-1",14 µM
same,CC50,"IGROV1; Homo sapiens, IGROV-1, read-out: LC50 (the source's name)",> 100 µM
same,Mean Optical Densities,IGROV1; Log10 Concentration −4.0 Molar,0.336
same,Percent Growth,IGROV1; Log10 Concentration −4.0 Molar,13%
same,Mean Optical Densities,IGROV1; Log10 Concentration −5.0 Molar,0.500
same,Percent Growth,IGROV1; Log10 Concentration −5.0 Molar,56%
same,Mean Optical Densities,IGROV1; Log10 Concentration −6.0 Molar,0.674
same,Percent Growth,IGROV1; Log10 Concentration −6.0 Molar,102%
same,Mean Optical Densities,IGROV1; Log10 Concentration −7.0 Molar,0.674
same,Percent Growth,IGROV1; Log10 Concentration −7.0 Molar,102%
same,Mean Optical Densities,IGROV1; Log10 Concentration −8.0 Molar,0.721
same,Percent Growth,IGROV1; Log10 Concentration −8.0 Molar,114%
same,TGI,UO-31,>1.00E−4 Molar
